Experimental data reported in PMC8280143, “A novel dephosphorylation targeting chimera selectively promoting tau removal in tauopathies” (Signal Transduction and Targeted Therapy, 2021).
No end group written: not given here. *: point of attachment. FITC = O=C1OC2(c3ccc(O)cc3Oc3cc(O)ccc32)c2ccc(NC(=S)*)cc21

Tests used:
[1] = system: PP2A-Bα (PPP2R1A); experiment: Fluorescence polarization binding assay, PP2A-Bα; parameters: species or system human; details: 0.1 μM FITC-labeled DEPTAC; serial dilutions of PP2A-Bα; 20 mM Tris-HCl, 150 mM NaCl, 0.5 mM DTT, pH 7.4; 37 °C, 30 min
Protocol: (§1) Purified human tau and PP2A-Bα (PPP2R1A) were obtained from AtaGenix (Wuhan, China), and concentrated using ultrafiltration tubes (Beyotime). In basic binding assays, tau or PP2A-Bα was aliquoted into serial dilutions with a buffer containing 20 mM Tris-HCl, 150 mM NaCl, and 0.5 mM 1,4-Dithiothreitol (pH 7.4), and incubated with 0.1 μM FITC-labeled DEPTAC, FITC-labeled control peptide and FITC (9:1 vol/vol), respectively, in a black 384-well plates (Corning) under 37 °C for 30 min. In competition binding assays, a mixture of 2.5 μM tau or PP2A-Bα and 0.1 μM FITC-labeled DEPTAC were incubated with increasing amounts of unlabeled-DEPTAC under 37 °C for 30 min. Fluorescence intensity was measured by a Biotek Synergy 2 microplate reader with the wavelengths of 480 nm (60) (Ex)/560 nm (40) (Em). The polarization measurements were corrected for background contributions to the measured intensity by subtracting the parallel and perpendicular intensity readings by the vehicle-only wells from the intensity readings for each data point. Fluorescence polarization (P) was calculated by the formula P = (I║ − I┴) / (I║ + I┴), where I║ was the intensity of emitted light polarized parallel to the excitation light, and I┴ was the intensity of emitted light polarized perpendicular to the excitation light.

[2] = system: human tau; experiment: Fluorescence polarization binding assay, tau; details: 0.1 μM FITC-labeled DEPTAC; serial dilutions of tau; 20 mM Tris-HCl, 150 mM NaCl, 0.5 mM DTT, pH 7.4; 37 °C, 30 min
Protocol: as §1

[3] = system: tau; details: cited from earlier work
Description: (§2) By contrast, small-molecular kinase inhibitors or phosphatase enhancers generally lack specificity. […] This might bring unacceptable side-effects in the clinic. Importantly, the principle of DEPTAC can be used in future studies to design alternative chimeras specifically targeting many other types of post-tr ...

[4] = system: glycogen synthase kinase-3; details: cited from earlier work
Description: as §2

[5] = system: inositol monophosphatase; details: cited from earlier work
Description: as §2

Row | Compound | FITC-DEPTAC fluorescence polarization with increased amount of PP2A-Bα [1] | FITC-DEPTAC fluorescence polarization with increased amount of tau [2] | suppression of tau hyperphosphorylation [3] | action on glycogen synthase kinase-3 [4] | action on inositol monophosphatase [5]
1 | FITC-DEPTAC: For tracing the chimera, a fluorescein FITC was conjugated at the K18 residue (YQQYQDATADEQGGSGSK(FITC)KVAVVRTPPKSPRRRRRRRR) | sigmoidal increases | sigmoidal increases |  |  | 
2 | [Li] [lithium] |  |  | suppress tau hyperphosphorylation | acts on other targets | acts on other targets
